Key:
Assay type in all cases: in vivo
[1] = test system: field corn (Zea mays L., var. Dekalb 535, CORN); test: Pre-emerge test, crop safety; settings: rated 14 days after application, 0 = no damage, 100 = complete death
How it was run: (§1)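 Visual ratings on a 0-100 scale (0 no damage, 100 all plants dead) were taken at 14 days after treatment. Rates of 15-1000 g ai/ha in acetone, 187 l/ha, were sprayed onto soil one day after planting (pre-emerge) or onto 2-3 leaf plants with 0.25% v/v surfactant (post-emerge).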

[2] = test system: upland rice (Oryza sp., var. Tebonnet, RICE); test: Pre-emerge test, crop safety; settings: rated 14 days after application, 0 = no damage, 100 = complete death
How it was run: as §1

[3] = test system: redroot pigweed (Amaranthus retroflexus, AMARE); test: Pre-emerge test, greenhouse herbicide activity screening; settings: rated 14 days after application, 0 = no damage, 100 = complete death
How it was run: (§2)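 Compounds in acetone were track-sprayed at 15-1000 g ai/ha (187 l/ha) on sandy loam pots: pre-emerge one day after seeding, post-emerge at 2-3 leaf stage with 0.25% v/v non-ionic surfactant. Phytotoxicity was rated 14 days later on a 0 (no damage) to 100 (complete death) scale.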

[4] = test system: field corn (Zea mays L., var. Dekalb 535, CORN); test: Post-emerge test, crop safety; settings: post-emerge, 14 days after application, rating scale 0-100
How it was run: as §2

[5] = test system: upland rice (Oryza sp., var. Tebonnet, RICE); test: Post-emerge test, crop safety; settings: post-emerge, 14 days after application, rating scale 0-100
How it was run: as §2

[6] = test system: common ragweed (Ambrosia artemisizfolia L., AMBEL); test: Post-emerge test, greenhouse herbicide activity screening; settings: post-emerge, 14 days after application, rating scale 0-100
How it was run: (§3)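 Plants grown in 10 cm pots of sandy loam mix received acetone-dissolved compounds through a moving flat-fan nozzle. Doses ranged from 15 to 1000 g ai/ha. Pre-emerge pots were seeded one day earlier, post-emerge pots 8–21 days earlier. Fourteen days on, each pot was graded 0–100 for damage.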

[7] = test system: redroot pigweed (Amaranthus retroflexus, AMARE); test: as above; settings: post-emerge, 14 days after application, rating scale 0-100
How it was run: as §3

[8] = test system: johnsongrass (Sorghum halepense, SORHA); test: as above; settings: post-emerge, 14 days after application, rating scale 0-100
How it was run: as §3

[9] = test system: barnyardgrass (Echinochloa crus-galli, ECHCG); test: as above; settings: post-emerge, 14 days after application, rating scale 0-100
How it was run: as §3

[10] = test system: sicklepod (Cassia obtusifolia, CASOB); test: as above; settings: post-emerge, 14 days after application, rating scale 0-100
How it was run: as §3

[11] = test system: ivyleaf morningglory (Ipomoea hederacea, IPOHE); test: as above; settings: post-emerge, 14 days after application, rating scale 0-100
How it was run: as §3

[12] = test system: lambsquarters (Chenopodium album, CHEAL); test: as above; settings: post-emerge, 14 days after application, rating scale 0-100
How it was run: as §3

[13] = test system: large crabgrass (Digitaria sanguinalis, DIGSA); test: as above; settings: post-emerge, 14 days after application, rating scale 0-100
How it was run: as §3

[14] = test system: velvetleaf (Abutilon theophrasti, ABUTH); test: as above; settings: post-emerge, 14 days after application, rating scale 0-100
How it was run: as §3

[15] = test system: common ragweed (Ambrosia artemisizfolia L., AMBEL); test: Pre-emerge test, greenhouse herbicide activity screening; settings: rated 14 days after application, 0 = no damage, 100 = complete death
How it was run: as §2

[16] = test system: johnsongrass (Sorghum halepense, SORHA); test: as above; settings: rated 14 days after application, 0 = no damage, 100 = complete death
How it was run: as §2

[17] = test system: barnyardgrass (Echinochloa crus-galli, ECHCG); test: as above; settings: rated 14 days after application, 0 = no damage, 100 = complete death
How it was run: as §2

[18] = test system: sicklepod (Cassia obtusifolia, CASOB); test: as above; settings: rated 14 days after application, 0 = no damage, 100 = complete death
How it was run: as §2

[19] = test system: ivyleaf morningglory (Ipomoea hederacea, IPOHE); test: as above; settings: rated 14 days after application, 0 = no damage, 100 = complete death
How it was run: as §2

[20] = test system: lambsquarters (Chenopodium album, CHEAL); test: as above; settings: rated 14 days after application, 0 = no damage, 100 = complete death
How it was run: as §2

[21] = test system: large crabgrass (Digitaria sanguinalis, DIGSA); test: as above; settings: rated 14 days after application, 0 = no damage, 100 = complete death
How it was run: as §2

[22] = test system: velvetleaf (Abutilon theophrasti, ABUTH); test: as above; settings: rated 14 days after application, 0 = no damage, 100 = complete death
How it was run: as §2

[23] = test system: green foxtail (Setaria viridis, SETVI); test: as above; settings: rated 14 days after application, 0 = no damage, 100 = complete death
How it was run: as §2

COc1c(Cl)cc(F)c(-n2c(=O)cc(C(F)(F)F)n(C)c2=O)c1N(C(=O)c1ccc(F)c(F)c1)C(=O)c1ccc(F)c(F)c1 [2-49]
20: Pre-emerge phytotoxicity rating (0-100), crop damage, RICE ([2]; 63 g ai/ha) | phytotoxicity rating AMARE ([7]; 63 g ai/ha) | Pre-emerge Herbicidal Activity, phytotoxicity rating (0-100), DIGSA ([21]; 63 g ai/ha)
50: phytotoxicity rating AMBEL ([6]; 63 g ai/ha) | phytotoxicity rating CASOB ([10]; 250 g ai/ha)
95: Pre-emerge Herbicidal Activity, phytotoxicity rating (0-100), SETVI ([23]; 250 g ai/ha)
30: phytotoxicity rating CASOB ([10]; 63 g ai/ha)
80: Pre-emerge Herbicidal Activity, phytotoxicity rating (0-100), SETVI ([23]; 63 g ai/ha)
0: Pre-emerge phytotoxicity rating (0-100), crop damage, CORN ([1]; 63 g ai/ha) | phytotoxicity rating CORN ([4]; 63 g ai/ha) | phytotoxicity rating RICE ([5]; 63 g ai/ha) | phytotoxicity rating SORHA ([8]; 63 g ai/ha) | phytotoxicity rating SORHA ([8]; 250 g ai/ha) | phytotoxicity rating ECHCG ([9]; 63 g ai/ha) | phytotoxicity rating ECHCG ([9]; 250 g ai/ha) | phytotoxicity rating DIGSA ([13]; 63 g ai/ha) | phytotoxicity rating DIGSA ([13]; 250 g ai/ha) | Pre-emerge Herbicidal Activity, phytotoxicity rating (0-100), SORHA ([16]; 63 g ai/ha) | Pre-emerge Herbicidal Activity, phytotoxicity rating (0-100), SORHA ([16]; 250 g ai/ha) | Pre-emerge Herbicidal Activity, phytotoxicity rating (0-100), ECHCG ([17]; 63 g ai/ha) | Pre-emerge Herbicidal Activity, phytotoxicity rating (0-100), CASOB ([18]; 63 g ai/ha) | Pre-emerge Herbicidal Activity, phytotoxicity rating (0-100), IPOHE ([19]; 63 g ai/ha)
40: phytotoxicity rating AMBEL ([6]; 250 g ai/ha) | phytotoxicity rating AMARE ([7]; 250 g ai/ha)
100: Pre-emerge Herbicidal Activity, phytotoxicity rating (0-100), AMARE ([3]; 63 g ai/ha) | Pre-emerge Herbicidal Activity, phytotoxicity rating (0-100), AMARE ([3]; 250 g ai/ha) | phytotoxicity rating ABUTH ([14]; 250 g ai/ha) | Pre-emerge Herbicidal Activity, phytotoxicity rating (0-100), AMBEL ([15]; 63 g ai/ha) | Pre-emerge Herbicidal Activity, phytotoxicity rating (0-100), AMBEL ([15]; 250 g ai/ha) | Pre-emerge Herbicidal Activity, phytotoxicity rating (0-100), CASOB ([18]; 250 g ai/ha) | Pre-emerge Herbicidal Activity, phytotoxicity rating (0-100), CHEAL ([20]; 63 g ai/ha) | Pre-emerge Herbicidal Activity, phytotoxicity rating (0-100), CHEAL ([20]; 250 g ai/ha) | Pre-emerge Herbicidal Activity, phytotoxicity rating (0-100), DIGSA ([21]; 250 g ai/ha) | Pre-emerge Herbicidal Activity, phytotoxicity rating (0-100), ABUTH ([22]; 63 g ai/ha) | Pre-emerge Herbicidal Activity, phytotoxicity rating (0-100), ABUTH ([22]; 250 g ai/ha)
10: phytotoxicity rating CORN ([4]; 250 g ai/ha) | phytotoxicity rating RICE ([5]; 250 g ai/ha) | Pre-emerge Herbicidal Activity, phytotoxicity rating (0-100), ECHCG ([17]; 250 g ai/ha)
60: Pre-emerge phytotoxicity rating (0-100), crop damage, RICE ([2]; 250 g ai/ha) | phytotoxicity rating CHEAL ([12]; 63 g ai/ha) | phytotoxicity rating CHEAL ([12]; 250 g ai/ha)
15: Pre-emerge phytotoxicity rating (0-100), crop damage, CORN ([1]; 250 g ai/ha)
90: phytotoxicity rating ABUTH ([14]; 63 g ai/ha) | Pre-emerge Herbicidal Activity, phytotoxicity rating (0-100), IPOHE ([19]; 250 g ai/ha)
70: phytotoxicity rating IPOHE ([11]; 63 g ai/ha) | phytotoxicity rating IPOHE ([11]; 250 g ai/ha)

Source: US6355799B1, “Substituted benzene compounds, process for their preparation, and herbicidal and defoliant compositions containing them” (ISK Americas Incorporated, priority 1997, dated 2002)
